Molecules are shown by their SMILES. Some results are limits rather than exact numbers.

The test system of one data set is Apis mellifera. The following applies: acute, duration: 48 hours, mortality.
The next data set has as its system Pimephales promelas. The following applies: chronic/long-term; duration: 33 days; behavior.
Another data set has as its system Cyprinodon variegatus. The following applies: acute; duration: 96 hours; mortality.
The subject of a further data set is Daphnia magna. The following applies: chronic/long-term; duration: 21 days; reproduction.
In the next data set the test system is Neomysis kadiakensis. The following applies: acute; duration: 96 hours; mortality.
The subject of the next data set is Folsomia candida. The following applies: chronic/long-term; duration: 28 days; reproduction.
For a further data set, the system named is Anas platyrhynchos. The following applies: short-term; oral; feed; mortality.
The next data set concerns Bibionidae. The following applies: chronic/long-term; duration: 28 days; other.
For another data set, the system named is Hypoaspis aculeifer. The following applies: chronic/long-term; duration: 14 days; reproduction.
The test system of a further data set is Mus musculus. The following applies: subchronic; duration: 90 days; oral; diet; organ weight.

In general, NOAEL refers to the highest dose or exposure tested at which no adverse effect was seen. Regarding `O=C(NCCc1ncc(C(F)(F)F)cc1Cl)c1ccccc1C(F)(F)F` [Fluopyram], the LD50 in the data set on Apis mellifera (dermal) was greater than 100 µg/piece; in the data set on Apis mellifera (oral, unspecified), greater than 102 µg/piece; in the data set with Rattus norvegicus (acute, oral, mortality) it was greater than 2000 mg/kg-day; with Colinus virginianus (acute, oral, mortality), greater than 2000 mg/kg-day. Further, the NOEC in the data set on Pimephales promelas was 0.135 mg/L; in the data set on Tagia sp. (chronic/long-term, duration: 56 days, reproduction), 11.4 mg/kg; in the data set with Daphnia magna, 1.25 mg/L; with Folsomia candida, 104 mg/kg; in the data set with Bibionidae it was 1.39 mg/L; in the data set on Hypoaspis aculeifer, greater than 415 mg/kg. Also, the LC50 in the data set with Tagia sp. (acute, duration: 14 days, mortality) is greater than 1000 mg/kg; in the data set on Cyprinodon variegatus, greater than 0.98 µg/mL; in the data set on Neomysis kadiakensis, greater than 0.5 µg/mL; in the data set with Anas platyrhynchos, greater than 1640 mg/kg-day. In addition, the NOAEL in the data set with Rattus norvegicus (acute, F, neurology) was 50 mg/kg-day; in the data set on Rattus norvegicus (chronic), 14.5 mg/kg-day; in the data set on Rattus norvegicus (chronic, duration: 2 years, oral, diet, body weight), 1.2 mg/kg-day; in the data set on Colinus virginianus (reproduction developmental), 7.2 mg/kg-day; with Mus musculus it was 5.4 mg/kg-day.

The record behind these values is EPA's ToxValDB 9.5 (doi:10.2903/j.efsa.2013.3052).
